Assay results as given in patent publication US20150353495A1 (PORTOLA PHARMACEUTICALS, INC., priority 2010, published 2015).

Columns and labels:
Assay type in all cases: biochemical
[1] = molecular target: T1, JAK1 (Homo sapiens, UniProt P23458); assay: Z'-LYTE kinase assay JAK1
T1 construct: 5 μl of catalytic domain recombinant Kinase enzyme+Tyr peptide substrate (Invitrogen, CA); purchased Invitrogen
Procedure: (§1) JAK and TYK2 tyrosine phosphorylation activity is measured using the Z′-LYTE™ Technology developed by Invitrogen Corporation (Carlsbad, Calif.). For JAK1, JAK2 and JAK3 the Z′-LYTE™ Kinase Assay Kit-Tyr6 Peptide (part number PV4122) was used. For TYK2 the Z′-LYTE™ Kinase Assay Kit-Tyr6 Peptide (part number PV3192) was used. The Z′-LYTE™ biochemical assay employs a fluorescence resonance energy transfer (FRET) coupled-enzyme format and is based on the differential sensitivity of phosphorylated and non-phosphorylated peptides to proteolitic cleavage. The assay uses a synthetic peptide substrate that is labelled with a donor fluorophore (coumarin) and an acceptor fluorophore (fluorescein) that make up a FRET pair. In the primary reaction (the Kinase Reaction), the kinase transfers the γ-phosphate of ATP to a single tyrosine residue on the substrate, while the presence of a kinase inhibitor in the primary reaction suppresses phosphorylation. In the secondary reaction (the Development Reaction), a site-specific protease (the Development Reagent) is added. The development buffer quenches the Kinase Reaction, while the protease recognizes and cleaves non-phosphorylated Z′-LYTE™ peptide substrate. Cleavage disrupts FRET between the donor and acceptor fluorophores on the non-phosphoryleted substrate, while uncleaved, phosphorylated substrate maintains FRET.
(§2) To test the ability of candidate molecules to inhibit JAK tyrosine phosphorylation activity, molecules are reconstituted in 100% DMSO and serially diluted 1:10 in polypropylene v-bottom microtiter plates. The candidate molecules are then diluted 1:25 into kinase buffer and 2.5 μl transferred into duplicate wells of a 384 well low volume black microtiter assay plate (Corning, USA). The final DMSO concentration in the assay is 1%. The kinase reaction contains 2.5 μl of a candidate molecule, 5 μl of catalytic domain recombinant Kinase enzyme+Tyr peptide substrate (Invitrogen, CA) and 2.5 μl ATP (Invitrogen, CA). The kinase reaction is allowed to procede for 1 hour at room temperature. The protease reaction is initiated by the addition of 5 μl Development Reagent (Invitrogen, CA). After 1 hour incubation at room temperature the fluorescence is measured using a FlexStation plate reader (Molecular Devices, Sunnyvale, Calif.).

[2] = molecular target: T2, JAK2 (Homo sapiens, UniProt O60674); assay: Z'-LYTE kinase assay JAK2
T2 construct: 5 μl of catalytic domain recombinant Kinase enzyme+Tyr peptide substrate (Invitrogen, CA); purchased Invitrogen
Procedure: as §1, §2

[3] = molecular target: T3, JAK3 (Homo sapiens, UniProt P52333); assay: Z'-LYTE kinase assay JAK3
T3 construct: 5 μl of catalytic domain recombinant Kinase enzyme+Tyr peptide substrate (Invitrogen, CA); purchased Invitrogen
Procedure: as §1, §2

T2 sequence (O60674 849-1124 limits assumed): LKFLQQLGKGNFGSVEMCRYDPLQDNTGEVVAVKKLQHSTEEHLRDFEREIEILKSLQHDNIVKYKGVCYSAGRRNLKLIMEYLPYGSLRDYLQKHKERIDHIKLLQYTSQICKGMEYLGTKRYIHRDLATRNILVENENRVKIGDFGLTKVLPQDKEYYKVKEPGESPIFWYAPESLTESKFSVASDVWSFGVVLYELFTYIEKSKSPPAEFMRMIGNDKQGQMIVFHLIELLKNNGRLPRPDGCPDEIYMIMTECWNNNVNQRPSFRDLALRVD
T3 sequence (P52333 822-1111 limits assumed): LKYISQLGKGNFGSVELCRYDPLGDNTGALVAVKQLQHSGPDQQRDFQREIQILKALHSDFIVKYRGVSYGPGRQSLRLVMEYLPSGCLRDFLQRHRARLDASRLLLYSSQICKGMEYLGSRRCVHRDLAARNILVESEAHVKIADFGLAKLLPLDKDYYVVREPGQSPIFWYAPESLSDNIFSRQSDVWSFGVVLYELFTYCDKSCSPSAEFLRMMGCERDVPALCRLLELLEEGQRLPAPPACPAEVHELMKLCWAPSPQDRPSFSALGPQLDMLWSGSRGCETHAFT
T1 sequence (P23458 875-1153 limits assumed): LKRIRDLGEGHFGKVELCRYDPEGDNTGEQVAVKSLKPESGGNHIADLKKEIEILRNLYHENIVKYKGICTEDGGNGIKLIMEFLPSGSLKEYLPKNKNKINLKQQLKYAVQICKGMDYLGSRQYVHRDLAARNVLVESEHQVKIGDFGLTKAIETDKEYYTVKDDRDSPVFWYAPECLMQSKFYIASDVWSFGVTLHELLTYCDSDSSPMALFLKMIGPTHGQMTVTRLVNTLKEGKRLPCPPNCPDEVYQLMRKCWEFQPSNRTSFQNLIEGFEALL

`COCC(=O)N1CC(c2ccc(Nc3cc(NCc4cccc(F)n4)c(C(N)=O)cn3)cc2)C1` [Example 493, 4-((6-fluoropyridin-2-yl)methylamino)-6-(4-(1-(2-methoxyacetyl)azetidin-3-yl)phenylamino)nicotinamide] was tested, and the IC50 [1] was 100 to 1000 nM, the IC50 [2] was 100 to 1000 nM and the IC50 [3] was 10 to 100 nM.

`CC(=O)N1CCN(c2ccc(Nc3ncc(C(N)=O)c(NCc4cccc(F)c4)c3Cl)cc2)CC1` [Example 376] gave an IC50 [1] greater than 1000 nM, an IC50 [2] greater than 1000 nM and an IC50 [3] of 100 to 1000 nM.

With `Cc1ccc(Nc2cc(NCc3cncc(F)c3)c(C(N)=O)cn2)cc1` [Example 311, 4-((5-fluoropyridin-3-yl)methylamino)-6-(p-tolylamino)nicotinamide] the IC50 [1] was 100 to 1000 nM, the IC50 [2] was 100 to 1000 nM and the IC50 [3] was 10 to 100 nM.

Compound `CCC(=O)N1CCC(c2ccc(Nc3cc(NCc4ncccn4)c(C(N)=O)cn3)cc2)CC1` [Example 180, 6-(4-(1-propionylpiperidin-4-yl)phenylamino)-4-(pyrimidin-2-ylmethylamino)nicotinamide] has an IC50 [1] greater than 1000 nM, an IC50 [2] greater than 1000 nM and an IC50 [3] of 100 to 1000 nM.

For `CN(C)C(=O)NCc1ccc(Nc2cc(NCc3cccc4ccsc34)c(C(N)=O)cn2)cc1` [Example 354, 4-(benzo[b]thiophen-7-ylmethylamino)-6-(4-((3,3-dimethylureido)methyl)phenylamino)nicotinamide], the IC50 [1] was 100 to 1000 nM, the IC50 [2] was 10 to 100 nM and the IC50 [3] was 1 to 10 nM.

`N#Cc1ccc(Nc2cc(NCc3ccccc3)c(C(N)=O)cn2)cc1` [Example 392] was tested, and the IC50 [1] was greater than 1000 nM, the IC50 [2] was greater than 1000 nM and the IC50 [3] was 100 to 1000 nM.

Work on `CN(C)CC(C)(C)CNc1cc(Nc2ccc(C3CCOCC3)cc2)ncc1C(N)=O` [Example 171, 4-(3-(dimethylamino)-2,2-dimethylpropylamino)-6-(4-(tetrahydro-2H-pyran-4-yl)phenylamino)nicotinamide] yielded an IC50 [1] greater than 1000 nM, an IC50 [2] greater than 1000 nM and an IC50 [3] of 100 to 1000 nM.

Compound `NC(=O)c1cnc(Nc2ccc(C(=O)NCC(F)(F)F)cc2)cc1NCc1cncc(F)c1` [Example 313, 4-((5-fluoropyridin-3-yl)methylamino)-6-(4-(2,2,2-trifluoroethylcarbamoyl)phenylamino)nicotinamide] has an IC50 [1] of 100 to 1000 nM, an IC50 [2] of 100 to 1000 nM and an IC50 [3] of 10 to 100 nM.

`NC(=O)c1cnc(Nc2cccc(F)c2)cc1NCc1cncc(F)c1` [Example 306, 6-(3-fluorophenylamino)-4-((5-fluoropyridin-3-yl)methylamino)nicotinamide] showed an IC50 [1] of 100 to 1000 nM, an IC50 [2] of 100 to 1000 nM and an IC50 [3] of 10 to 100 nM.

`CC(=O)N1CCC(CNc2cc(Nc3ccc(C(=O)N4CCOCC4)cc3)ncc2C(N)=O)CC1` [Example 44, 4-((1-acetylpiperidin-4-yl)methylamino)-6-(4-(morpholine-4-carbonyl)phenylamino)nicotinamide] gave an IC50 [1] greater than 1000 nM, an IC50 [2] greater than 1000 nM and an IC50 [3] greater than 1000 nM.

For `NC(=O)c1cnc(Nc2ccc(C3CCN(S(=O)(=O)C4CC4)CC3)cc2)cc1NCc1ccccc1F` [Example 113, 6-(4-(1-(cyclopropylsulfonyl)piperidin-4-yl)phenylamino)-4-(2-fluorobenzylamino)nicotinamide], the IC50 [1] was greater than 1000 nM, the IC50 [2] was greater than 1000 nM and the IC50 [3] was 10 to 100 nM.

`CCC(=O)N(C)c1ccc(Nc2cc(NCc3cccc4ccsc34)c(C(N)=O)cn2)cc1` [Example 466, 4-(benzo[b]thiophen-7-ylmethylamino)-6-(4-(N-methylpropionamido)phenylamino)nicotinamide] was tested, and the IC50 [1] was 100 to 1000 nM, the IC50 [2] was 100 to 1000 nM and the IC50 [3] was 1 to 10 nM.

`Cc1cc(Nc2cc(NCc3cccc4[nH]ccc34)c(C(N)=O)cn2)ccc1C(=O)N1CCOCC1` [Example 462, 4-((1H-indol-4-yl)methylamino)-6-(3-methyl-4-(morpholine-4-carbonyl)phenylamino)nicotinamide] showed an IC50 [1] of 1 to 10 nM, an IC50 [2] of 1 to 10 nM and an IC50 [3] of less than 1 nM.

For `NC(=O)c1cnc(Nc2ccc(C3CNC3)cc2)cc1NCc1ccccc1` [Example 325, 6-(4-(azetidin-3-yl)phenylamino)-4-(benzylamino)nicotinamide], the IC50 [1] was greater than 1000 nM, the IC50 [2] was 100 to 1000 nM and the IC50 [3] was 1 to 10 nM.
